Experimental findings from patent US9957428B2 (priority 2013, dated 2018) are described below.

The format of data set [1] is physicochemical.
The format of data set [2] is physicochemical. This is another data set of the same source.

Where two headings read alike, the source gives them in different places.

`F/C(=C(/F)C(F)(F)F)N1C(F)(F)C(F)(F)OC(F)(F)C1(F)F` [Preparatory Example 2, 2,2,3,3,5,5,6,6-octafluoro-4-(1,2,3,3,3-pentafluoroprop-1-enyl)morpholine]: the Cp in data set [1] (Temperature 15 ° C.) was 1.09 J/(g · ° C.); in data set [1] (Temperature 20 ° C.) it was 1.10 J/(g · ° C.); in data set [1] (Temperature 25 ° C.), 1.11 J/(g · ° C.); in data set [1] (Temperature 30 ° C.) it was 1.12 J/(g · ° C.); in data set [1] (Temperature 35 ° C.), 1.13 J/(g · ° C.); in data set [1] (Temperature 40 ° C.), 1.14 J/(g · ° C.).

Consider `CCOC(F)(C(F)(F)C(F)(F)C(F)(F)F)C(F)(C(F)(F)F)C(F)(F)F` (stereo not shown) [Novec 7500], for which the Cp is 1.08 J/(g · ° C.) in data set [1] (Temperature 15 ° C.); 1.09 J/(g · ° C.) in data set [1] (Temperature 20 ° C.); 1.10 J/(g · ° C.) in data set [1] (Temperature 25 ° C.); 1.11 J/(g · ° C.) in data set [1] (Temperature 30 ° C.); 1.12 J/(g · ° C.) in data set [1] (Temperature 35 ° C.); 1.13 J/(g · ° C.) in data set [1] (Temperature 40 ° C.).

Regarding `FC(=C(F)C(F)(F)F)N(C(F)(F)F)C(F)(F)C(F)(F)F` [Preparatory Example 5, 1,2,3,3,3-pentafluoro-N-(1,1,2,2,2-pentafluoroethyl)-N-(trifluoromethyl)prop-1-en-1-amine], the Cp in data set [1] (Temperature 15 ° C.) is listed as 1.18 J/(g · ° C.); in data set [1] (Temperature 20 ° C.), 1.20 J/(g · ° C.); in data set [1] (Temperature 25 ° C.), 1.21 J/(g · ° C.); in data set [1] (Temperature 30 ° C.), 1.22 J/(g · ° C.); in data set [1] (Temperature 35 ° C.) it was 1.23 J/(g · ° C.); in data set [1] (Temperature 40 ° C.) it was 1.24 J/(g · ° C.).

Take `FC(=C(F)C(F)(F)F)N(C(F)(F)F)C(F)(F)F` [Preparatory Example 1, 1,2,3,3,3-pentafluoro-N,N-bis(trifluoromethyl)prop-1-en-1-amine]: the “Vapor Pressure at 68° F.(20° C.)” value is on record as 50.9 mm Hg. In data set [1] (Temperature 15 ° C.), the Cp is listed as 1.25 J/(g · ° C.). For the same molecule, the Cp in data set [1] (Temperature 20 ° C.) was 1.27 J/(g · ° C.). Further, the Cp in data set [1] (Temperature 25 ° C.) is given as 1.28 J/(g · ° C.). Also, in data set [1] (Temperature 30 ° C.), the Cp is given as 1.30 J/(g · ° C.). Further, in data set [1] (Temperature 35 ° C.), the Cp was 1.32 J/(g · ° C.). Also, the Cp in data set [1] (Temperature 40 ° C.) is reported as 1.34 J/(g · ° C.). Also, in data set [2] (Temp 0.0 °C), the “Kinematic Viscosity” value was found to be 0.91 cS. In addition, the “Kinematic Viscosity” value in data set [2] (Temp 25.0 °C) amounted to 0.58 cS. Further, in data set [2] (Temp 30.0 °C), the “Kinematic Viscosity” value turned out to be 0.54 cS. For the same molecule, the “Kinematic Viscosity” value in data set [2] (Temp 40.0 °C) turned out to be 0.48 cS. In data set [2] (Temp 50.0 °C), the “Kinematic Viscosity” value stood at 0.42 cS. Further, the “Kinematic Viscosity” value in data set [2] (Temp 60.0 °C) turned out to be 0.38 cS.
